Test results reported in a melting point compilation (Tetko et al.).

Row | Structure (SMILES) | melting point
1 | Nc1ccc(F)c(NC(=O)Cc2ccccc2)c1 | 180 to 182 °C
2 | COc1c(C(=O)O)sc(C)c1Br | 165 to 167 °C
3 | O=C(O)c1ccc2c(=O)[nH]c(CCl)nc2c1 | 344 to 346 °C
4 | COc1ccccc1NC(=O)NC1CCNCC1 | 83 to 85 °C
5 | CCN(CC)CCn1c(N)nc2ccccc21 | 129 to 131 °C
6 | COc1ccc(C(=O)O)cn1 | 172 to 174 °C
7 | Cn1cnc2c(Br)cccc21 | 101 to 103 °C
8 | CC(C)(C)C1CCc2sc(-c3nnc(CCl)o3)cc2C1 (stereo not drawn) | 89 to 91 °C
9 | O=C(O)C1(c2cccc(Cl)c2)CC1 | 135 to 137 °C
10 | Nc1ccc2cccc(Cl)c2n1 | 165 to 167 °C
11 | COc1ccccc1Oc1ccc(C(N)=S)cc1 | 193 to 195 °C
12 | CCCOc1cc2c(cc1OCCC)CCNCC2 | 61 to 63 °C
13 | O=C(O)CCNS(=O)(=O)c1cccc(Br)c1 | 146 to 148 °C
14 | O=[N+]([O-])c1cnccc1NC1CC1 | 105 to 107 °C
15 | FC(F)(F)CN1CCNc2ccccc21 | 62 to 64 °C
16 | NC(=NO)c1ccc(-n2cnc3ccccc32)nc1 | 214 to 216 °C
17 | Nc1cccc(NC(=O)NCc2ccncc2)c1 | 159 to 161 °C
18 | COc1ccc(C=O)cc1OCc1cccnc1 | 84 to 86 °C
19 | Cc1ccnc(NC(=O)C2CCNCC2)c1 | 134 to 136 °C
20 | O=C(O)C1CCN(C(=O)NC2CC2)CC1 | 123 to 125 °C
21 | CC(=O)N1CCCNc2ccccc21 | 132 to 134 °C
22 | CCCNC(=O)c1ccc(Cl)cc1[N+](=O)[O-] | 107 to 109 °C
23 | CC1CCCN(c2ccccc2O)C1 (stereo not drawn) | 44 to 46 °C
24 | Nc1ccc(Sc2ccccn2)c(Cl)c1 | 110 to 112 °C
25 | CN(C)C(=O)COc1cccc(N)c1 | 100 to 102 °C
26 | COC(=O)c1n[nH]c(=O)c2noc(C3CC3)c12 | 234 to 236 °C
27 | c1cncc(CNc2nc3ccccc3[nH]2)c1 | 177 to 179 °C
28 | O=C(Nc1ccc(Br)cc1Cl)OCC(F)(F)F | 70 to 72 °C

Row | Structure (SMILES) | melting point
29 | Nc1ncc(Cc2cccc(F)c2)s1 | 82 to 84 °C
30 | Cc1oc(-c2ccsc2)nc1CCl | 101 to 103 °C
31 | CC1CC(C)CN(c2ccc(C(=O)O)cc2[N+](=O)[O-])C1 (stereo not drawn) | 167 to 169 °C
32 | N#CCN1CCSCC1 | 51 to 53 °C
33 | O=C(O)c1cc2c(F)cccc2[nH]1 | 209 to 211 °C
34 | N#Cc1ccc(-n2cc(C#N)c(N)n2)c(F)c1 | 258 to 260 °C
35 | CCCn1c(=O)[nH]c(=O)c2cc(C(=O)O)cnc21 | 235 to 237 °C
36 | Oc1ccc2c(c1)CNCC2 | 194 to 196 °C
37 | O=C1CCCc2c(Cl)sc(Cl)c21 | 37 to 39 °C
38 | Cc1ccc(NC(=O)C(=O)NN)cc1 | 204 to 206 °C
39 | O=C(O)c1cc(=O)c2cc(Br)ccc2[nH]1 | 297 to 299 °C
40 | O=C1OC(=O)C(Cl)=C1Cl | 107 to 109 °C
41 | O=C(O)CCN1CCCC1=O | 109 to 111 °C
42 | CCc1nnc(S)n1C | 138 to 140 °C
43 | Cc1cccc(NC(=S)NN)c1C | 170 to 172 °C
44 | Nc1cccc(S(=O)(=O)Nc2cccc(Cl)c2)c1 | 107 to 109 °C
45 | COc1ccc2[nH]cc(C(=O)CC#N)c2c1 | 289 to 291 °C
46 | FC(F)(F)c1ccc2nnc(S)n2c1 | 120 to 122 °C
47 | Nc1ncc(CCC(=O)O)s1 | 195 to 197 °C
48 | CCC(=O)c1ccc(OCC(=O)O)cc1 | 131 to 133 °C
49 | c1cc2c(s1)C1(CCNCC1)OCC2 | 95 to 97 °C
50 | NC(=S)NN=Cc1cccs1 | 161 to 163 °C
51 | O=C(NC1(C(=O)O)CCCCC1)c1ccc(Br)cc1 | 238 to 240 °C
52 | O=C(O)c1ccccc1NS(=O)(=O)c1ccc(Br)cc1 | 225 to 227 °C
53 | COc1ccc(C=C2CCCc3c2nc2ccccc2c3C(=O)O)cc1 | 157 to 159 °C
54 | COC(=O)c1cc(N)cc(F)c1F | 89 to 91 °C
55 | Nc1nnc(C2CC2)o1 | 170 to 172 °C

Further lines, results first:

Row | melting point | Structure (SMILES)
56 | 199 to 201 °C | O=C(CCl)N1CCN(C(=O)C2COc3ccccc3O2)CC1 (stereo not drawn)
57 | 124 to 126 °C | CN(C)C(=O)c1ccccc1C(=O)O
58 | 104 to 106 °C | CC(C)NS(=O)(=O)C1CCNC1 (stereo not drawn)
59 | 159 to 161 °C | Nc1nnc(Cl)c2ccccc12
60 | 148 to 150 °C | CCOC(=O)c1sc(NC(=O)CCl)c(C(=O)OC(C)(C)C)c1C
61 | 89 to 93 °C | CCOC(=O)c1ccc(-n2ccnc2)c(N)c1
62 | 87 to 89 °C | N#CCN1CCc2ccc(N)cc21
63 | 112 to 114 °C | O=C(O)C1CCCN(C(=O)Cc2ccccc2)C1 (stereo not drawn)
64 | 129 to 133 °C | O=c1c2ccccc2nnn1CCl
65 | 201 to 203 °C | CCOc1cc(/C=C/C(=O)O)ccc1OCc1cccnc1
66 | 249 to 251 °C | CNC(=O)CS(=O)(=O)c1ccc(C(=O)O)cc1
67 | 61 to 63 °C | CC(O)c1nc2ccccc2s1 (stereo not drawn)
68 | 157 to 159 °C | Nc1ccc(C(=O)NCCN2CCOCC2)cc1
69 | 143 to 147 °C | NS(=O)(=O)c1cc(C(=O)O)cc([N+](=O)[O-])c1Cl
70 | 125 to 127 °C | COc1ccc(-n2ccnc2SCC(=O)O)cc1
71 | 110 to 112 °C | O=S(=O)(Cl)C=Cc1ccc(F)cc1
72 | 32 to 34 °C | Cc1cc(F)c(N)c(I)c1
73 | 163 to 165 °C | CCOc1ccc2nc(NS(=O)(=O)c3cc(C(=O)O)c(Cl)cc3Cl)sc2c1
74 | 160 to 162 °C | CCOc1cccc2c1OCC(C(=O)O)C2 (stereo not drawn)
75 | 101 to 103 °C | FC(F)(F)c1cc(Cl)ccc1-n1nnnc1CCl
76 | 64 to 66 °C | COc1ccc(C(C)=O)cc1CSc1nnnn1C
77 | 215 to 217 °C | Nc1nn2cc(-c3ccccc3)nc2c2ccccc12
78 | 176 to 178 °C | O=C(O)C1CCCc2[nH]ncc21 (stereo not drawn)
79 | 202 to 204 °C | O=C(O)CCc1nc(-c2ncccn2)no1

Row | melting point | Structure (SMILES)
80 | 111 to 113 °C | Cc1ccccc1C(=O)NC(CC(C)C)C(=O)O (stereo not drawn)
81 | 118 to 120 °C | C=CCn1c(N)c(C(=O)OCC)sc1=S
82 | 152 to 154 °C | CC(=O)c1c(C)nc2ccccc2c1N
83 | 138 to 140 °C | NC(=S)NC1CC1
84 | 233 to 235 °C | CCCC1CCc2[nH]c(=O)c(C#N)cc2C1 (stereo not drawn)
85 | 235 to 237 °C | CCCNS(=O)(=O)c1ccc(/C=C/C(=O)O)cc1
86 | 162 to 164 °C | CC(C)c1nc(S(=O)(=O)Cl)c[nH]1
87 | 116 to 118 °C | COc1cc(OC)cc(-c2cc(N)on2)c1
88 | 149 to 151 °C | O=C(O)c1cc(S(=O)(=O)NCc2ccco2)c(Cl)cc1Cl
89 | 170 to 172 °C | CCCC(NC(N)=O)C(=O)O (stereo not drawn)
90 | 260 to 262 °C | Cn1c(N)c(C(=O)CC#N)c(=O)n(C)c1=O
91 | 50 to 52 °C | Cc1ccc2c(c1C)OCCCC2=O
92 | 70 to 72 °C | Cc1cccc(C)c1OCCO
93 | 233 to 235 °C | CC(=O)N1CCc2cc(NC(=O)CCl)ccc21
94 | 181 to 183 °C | Cc1nc2sccc2c(=O)n1N
95 | 63 to 65 °C | CC(Cl)C(=O)Nc1ccccc1Cl (stereo not drawn)
96 | 34 to 36 °C | Cc1ccnn1-c1ccccn1
97 | 204 to 206 °C | CCn1c(=O)c(C)nc2cc(C(=O)O)ccc21
98 | 49 to 51 °C | O=C1CCSc2ccc(Br)cc21
99 | 141 to 143 °C | O=c1[nH]c2c(s1)CCCC2
100 | 119 to 121 °C | O=C1CCC(O)(c2cccc(Cl)c2)CC1
101 | 40 to 42 °C | COc1ccc(C=O)cc1OCC(C)C
102 | 139 to 141 °C | O=S(=O)(c1ccc2oc(S)nc2c1)N1CCCCC1
103 | 247 to 249 °C | Nc1nnc(-c2ccc3c(c2)OCCO3)o1
